# Assay results reported in patent US11306079B2, “3-(5-amino-pyrazin-2-yl)-benzenesulfonamide derivatives and related compounds as PI3K-gamma kinase inhibitors” (Incyte Corporation, priority 2017, dated 2022).
# Where a name gives a salt, the structure may show the parent alone.
# What was measured:
# [1] = tested on: Phosphorylated Ribosomal Protein S6 (RPS6) in THP-1 cells; assay: THP-1 RPS6 ELISA Assay; format: cell-based; conditions: Homo sapiens; serum starved THP-1 cells, 2 hours with compound, 10 nM MCP-1 for 15 minutes, Phospho-RPS6 ELISA; read-out: PI3Kγ_THP1_RPS6_ELISA IC50
# Method: Example A. THP-1 RPS6 ELISA Assay
# To measure the Phosphorylated Ribosomal Protein S6 (RPS6) in cell lysates, THP-1 cells (Human Acute Monocytic Leukemia) are purchased from ATCC (Manassas, Va.) and maintained in RPMI with 10% FBS (Gibco/Life Technologies, Carlsbad, Calif.). For the assay, THP-1 cells are serum starved overnight in RPMI, then plated in RPMI (2×10^5 cells/well in 90 μL) into 96-well flat-bottom tissue culture treated plates (Corning, Corning, N.Y.), in the presence or absence of a concentration range of test compounds. Covered plates are incubated for 2 hours at 37° C., 5% CO2 then treated with or without 10 nM MCP-1 (MYBioSource, San Diego, Calif.) for 15 minutes at 37° C., 5% CO2. Plates are centrifuged at 1600 RPM and supernatants are removed. Cells are lysed in Lysis Buffer (Cell Signaling, Danvers, Mass.) with Protease Inhibitor (Calbiochem/EMD, Germany), PMSF (Sigma, St Louis Mo.), HALTS (Thermo Fisher, Rockford, Ill.) for 30 min on wet ice. Cell lysates are frozen at −80° C. before testing. The lysates are tested in the Human/Mouse/Rat Phospho-RPS6 ELISA (R&D Systems, Inc. Minn, Minn.). The plate is measured using a microplate reader (SpectraMax M5—Molecular Devices, LLC Sunnyvale, Calif.) set to 450 nm with a wavelength correction of 540. IC50 determination is performed by fitting the curve of inhibitor percent inhibition versus the log of the inhibitor concentration using the GraphPad Prism 5.0 software.
# [2] = target: PI3Kγ (p110γ) Recombinant Human Protein (Homo sapiens (Human), UniProt P48736); assay: PI3K-γ Scintillation Proximity Assay; format: biochemical; conditions: 20 μM PIP2, 2 μM ATP, 13 nM PI3Kγ, 120 min, room temperature
# PI3Kγ (p110γ) Recombinant Human Protein, sequence (P48736 whole entry): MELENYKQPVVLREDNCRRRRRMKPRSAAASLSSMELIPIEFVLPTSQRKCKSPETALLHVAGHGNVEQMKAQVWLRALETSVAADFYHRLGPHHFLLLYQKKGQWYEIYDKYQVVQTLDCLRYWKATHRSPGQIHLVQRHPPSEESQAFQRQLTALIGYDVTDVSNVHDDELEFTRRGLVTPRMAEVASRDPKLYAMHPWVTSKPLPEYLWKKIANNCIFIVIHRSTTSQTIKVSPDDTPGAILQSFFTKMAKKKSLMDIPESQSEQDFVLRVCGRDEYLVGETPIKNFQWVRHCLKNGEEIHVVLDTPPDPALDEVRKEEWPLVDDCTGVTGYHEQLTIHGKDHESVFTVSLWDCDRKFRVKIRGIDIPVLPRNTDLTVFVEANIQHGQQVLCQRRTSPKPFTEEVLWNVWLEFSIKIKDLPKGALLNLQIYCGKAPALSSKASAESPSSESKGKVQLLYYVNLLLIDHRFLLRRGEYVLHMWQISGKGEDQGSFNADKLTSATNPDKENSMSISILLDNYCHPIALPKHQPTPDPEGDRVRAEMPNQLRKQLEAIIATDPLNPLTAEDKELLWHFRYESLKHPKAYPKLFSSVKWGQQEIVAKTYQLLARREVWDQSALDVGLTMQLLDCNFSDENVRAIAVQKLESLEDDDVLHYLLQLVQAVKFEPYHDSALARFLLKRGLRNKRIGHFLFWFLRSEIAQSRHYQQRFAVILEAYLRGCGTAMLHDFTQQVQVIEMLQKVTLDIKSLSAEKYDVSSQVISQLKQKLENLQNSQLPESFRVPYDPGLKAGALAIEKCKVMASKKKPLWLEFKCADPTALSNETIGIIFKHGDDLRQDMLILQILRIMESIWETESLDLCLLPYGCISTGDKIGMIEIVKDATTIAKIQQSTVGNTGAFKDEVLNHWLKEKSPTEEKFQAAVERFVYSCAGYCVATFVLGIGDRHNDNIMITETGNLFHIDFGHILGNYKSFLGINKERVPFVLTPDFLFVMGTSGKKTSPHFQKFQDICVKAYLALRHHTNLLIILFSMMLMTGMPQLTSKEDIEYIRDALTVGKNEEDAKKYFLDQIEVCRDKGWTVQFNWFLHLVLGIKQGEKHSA
# Procedure, shortened: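 Recombinant human p110γ (13 nM) phosphorylated 20 μM PIP2 with 2 μM ATP plus [γ-33P]ATP in 20 mM MOPS pH 6.7, 10 mM MgCl2, 5 mM DTT, 0.03% CHAPS, 2% DMSO, 120 min at room temperature. Radiolabelled product was captured on WGA SPA beads and counted. IC50 came from curves of percent solvent-control activity.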
# [3] = target: PI3Kδ (p110δ/p85α) Recombinant Human Protein (Homo sapiens (Human), UniProt O00329); assay: PI3Kδ Scintillation Proximity Assay; format: biochemical; conditions: 20 μM PIP2, 2 μM ATP, 3.4 nM PI3Kδ, 120 min, room temperature
# PI3Kδ (p110δ/p85α) Recombinant Human Protein, sequence (O00329 whole entry): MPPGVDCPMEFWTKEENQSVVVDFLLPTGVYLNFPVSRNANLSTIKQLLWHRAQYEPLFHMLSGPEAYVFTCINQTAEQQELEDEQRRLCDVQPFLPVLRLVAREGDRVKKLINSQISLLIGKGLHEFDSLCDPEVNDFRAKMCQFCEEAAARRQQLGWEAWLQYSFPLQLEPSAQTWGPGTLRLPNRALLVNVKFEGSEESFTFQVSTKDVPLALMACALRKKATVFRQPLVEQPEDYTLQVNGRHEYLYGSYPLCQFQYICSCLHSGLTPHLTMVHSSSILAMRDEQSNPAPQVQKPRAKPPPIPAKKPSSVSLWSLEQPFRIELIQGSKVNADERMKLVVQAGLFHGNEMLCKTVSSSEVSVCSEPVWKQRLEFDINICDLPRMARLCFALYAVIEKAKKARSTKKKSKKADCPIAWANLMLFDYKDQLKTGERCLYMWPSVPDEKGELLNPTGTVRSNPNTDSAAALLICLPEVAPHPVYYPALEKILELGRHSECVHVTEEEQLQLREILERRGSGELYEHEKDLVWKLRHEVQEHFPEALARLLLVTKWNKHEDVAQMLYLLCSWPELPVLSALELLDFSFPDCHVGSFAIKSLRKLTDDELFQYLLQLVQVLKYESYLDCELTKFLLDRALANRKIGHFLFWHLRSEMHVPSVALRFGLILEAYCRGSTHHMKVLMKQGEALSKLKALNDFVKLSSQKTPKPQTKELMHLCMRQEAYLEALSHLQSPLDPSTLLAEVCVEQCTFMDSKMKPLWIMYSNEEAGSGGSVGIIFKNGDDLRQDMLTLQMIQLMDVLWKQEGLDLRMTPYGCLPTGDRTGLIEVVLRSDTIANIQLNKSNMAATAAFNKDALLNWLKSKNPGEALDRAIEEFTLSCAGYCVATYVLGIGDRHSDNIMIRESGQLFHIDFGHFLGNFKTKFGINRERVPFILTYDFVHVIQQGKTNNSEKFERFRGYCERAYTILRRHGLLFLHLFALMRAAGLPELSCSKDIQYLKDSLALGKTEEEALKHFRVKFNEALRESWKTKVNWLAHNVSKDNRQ
# PI3Kδ (p110δ/p85α) Recombinant Human Protein, sequence (P27986 whole entry partner): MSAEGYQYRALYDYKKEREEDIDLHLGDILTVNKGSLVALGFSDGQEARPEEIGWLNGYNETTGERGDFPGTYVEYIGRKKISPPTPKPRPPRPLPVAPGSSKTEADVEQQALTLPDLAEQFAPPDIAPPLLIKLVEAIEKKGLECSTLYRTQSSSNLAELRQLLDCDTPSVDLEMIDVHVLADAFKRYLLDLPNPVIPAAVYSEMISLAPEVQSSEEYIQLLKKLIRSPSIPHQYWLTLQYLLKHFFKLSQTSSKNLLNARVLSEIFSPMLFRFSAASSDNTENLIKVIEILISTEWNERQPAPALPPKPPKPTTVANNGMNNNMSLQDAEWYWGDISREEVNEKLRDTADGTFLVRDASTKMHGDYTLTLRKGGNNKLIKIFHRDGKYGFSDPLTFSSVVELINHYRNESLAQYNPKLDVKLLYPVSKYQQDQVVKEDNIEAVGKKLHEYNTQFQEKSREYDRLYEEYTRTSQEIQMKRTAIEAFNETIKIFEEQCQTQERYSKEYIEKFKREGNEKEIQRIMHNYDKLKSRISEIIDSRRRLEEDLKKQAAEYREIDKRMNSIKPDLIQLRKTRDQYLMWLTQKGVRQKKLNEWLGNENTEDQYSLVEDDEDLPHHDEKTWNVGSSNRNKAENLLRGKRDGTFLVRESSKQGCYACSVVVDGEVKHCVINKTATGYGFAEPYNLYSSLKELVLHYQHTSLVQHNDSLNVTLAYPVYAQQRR
# Procedure, shortened: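 Recombinant human p110δ/p85α (3.4 nM) with 20 μM PIP2 and 2 μM ATP plus [γ-33P]ATP, in 20 mM MOPS pH 6.7, 10 mM MgCl2, 5 mM DTT, 0.03% CHAPS, 2% DMSO; 120 min at room temperature. Product captured on WGA SPA beads, scintillation counted; IC50 from percent-of-control curves.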
SMILES,IC50 [1],IC50 [2],IC50 [3]
"Cc1ccc(S(=O)(=O)NC23CC(C(C)(C)O)(C2)C3)cc1-c1cnc(N)c(-n2cncn2)n1 [Example 29, 3-(5-Amino-6-(1H-1,2,4-triazol-1-yl)pyrazin-2-yl)-N-(3-(2-hydroxypropan-2-yl)bicyclo[1.1.1]pentan-1-yl)-4-methylbenzenesulfonamide trifluoroacetate salt]",≤ 0.5 µM,≤ 0.1 µM,≤ 0.5 µM
"Cc1ccc(S(=O)(=O)NC23CCC(O)(C2)C3)cc1-c1cnc(N)c(-n2cncn2)n1 [Example 30, 3-(5-Amino-6-(1H-1,2,4-triazol-1-yl)pyrazin-2-yl)-N-(4-hydroxybicyclo[2.1.1]hexan-1-yl)-4-methylbenzenesulfonamide Trifluoroacetate Salt]",≤ 0.5 µM,≤ 0.1 µM,≤ 0.5 µM
"CNC(=O)OCC12CC(NS(=O)(=O)c3ccc(C)c(-c4cnc(N)c(-n5cncn5)n4)c3)(C1)C2 [Example 31, (3-(3-(5-Amino-6-(1H-1,2,4-triazol-1-yl)pyrazin-2-yl)-4-methylphenylsulfonamido)bicyclo[1.1.1]pentan-1-yl)methyl Methylcarbamate Trifluoroacetate Salt]",≤ 0.5 µM,≤ 0.1 µM,≤ 0.5 µM
"Cc1ccc(S(=O)(=O)NC23CC(C(=O)N4CCC4)(C2)C3)cc1-c1cnc(N)c(-n2cncn2)n1 [Example 34, 3-(5-Amino-6-(1H-1,2,4-triazol-1-yl)pyrazin-2-yl)-N-(3-(azetidine-1-carbonyl)bicyclo[1.1.1]pentan-1-yl)-4-methylbenzenesulfonamide trifluoroacetate salt]",≥ 1 µM,≤ 0.1 µM,≤ 0.5 µM
"Cc1ccc(S(=O)(=O)NC23CC(C(=O)NCC(F)(F)F)(C2)C3)cc1-c1cnc(N)c(-n2cncn2)n1 [Example 35, 3-(3-(5-Amino-6-(1H-1,2,4-triazol-1-yl)pyrazin-2-yl)-4-methylphenylsulfonamido)-N-(2,2,2-trifluoroethyl)bicyclo[1.1.1]pentane-1-carboxamide trifluoroacetate salt]",≤ 1 µM,≤ 0.1 µM,≤ 0.5 µM
"CCOC(=O)NC12CC(NS(=O)(=O)c3ccc(C)c(-c4cnc(N)c(-n5cncn5)n4)c3)(C1)C2 [Example 39, Ethyl 3-(3-(5-amino-6-(1H-1,2,4-triazol-1-yl)pyrazin-2-yl)-4-methylphenylsulfonamido)bicyclo[1.1.1]pentan-1-ylcarbamate Trifluoroacetate Salt]",≤ 0.5 µM,≤ 0.1 µM,≤ 0.5 µM
"CC(=O)NC12CC(NS(=O)(=O)c3ccc(C)c(-c4cnc(N)c(-n5cncn5)n4)c3)(C1)C2 [Example 40, N-(3-(3-(5-Amino-6-(1H-1,2,4-triazol-1-yl)pyrazin-2-yl)-4-methylphenylsulfonamido)bicyclo[1.1.1]pentan-1-yl)acetamide Trifluoroacetate Salt]",≤ 1 µM,≤ 0.1 µM,≤ 0.5 µM
"Cc1ccc(S(=O)(=O)NC23CC(C#N)(C2)C3)cc1-c1cnc(N)c(-n2nccn2)n1 [Example 41, 3-(5-Amino-6-(2H-1,2,3-triazol-2-yl)pyrazin-2-yl)-N-(3-cyanobicyclo[1.1.1]pentan-1-yl)-4-methylbenzenesulfonamide Trifluoroacetate Salt]",≤ 0.1 µM,≤ 0.1 µM,≤ 0.1 µM
"Cc1ccc(S(=O)(=O)NC23CCC(C#N)(C2)C3)cc1-c1cnc(N)c(-n2nccn2)n1 [Example 42, 3-(5-Amino-6-(2H-1,2,3-triazol-2-yl)pyrazin-2-yl)-N-(4-cyanobicyclo[2.1.1]hexan-1-yl)-4-methylbenzenesulfonamide Trifluoroacetate Salt]",≤ 0.1 µM,≤ 0.1 µM,≤ 0.5 µM
"Cc1ccc(S(=O)(=O)NC23CC(C#N)(C2)C3)cc1-c1cnc(N)c(-n2ccnn2)n1 [Example 43, 3-(5-Amino-6-(1H-1,2,3-triazol-1-yl)pyrazin-2-yl)-N-(3-cyanobicyclo[1.1.1]pentan-1-yl)-4-methylbenzenesulfonamide Trifluoroacetate Salt]",≤ 0.1 µM,≤ 0.1 µM,≤ 0.5 µM
"Cc1ccc(S(=O)(=O)NC23CCC(C#N)(C2)C3)cc1-c1cnc(N)c(-n2ccnn2)n1 [Example 44, 3-(5-Amino-6-(1H-1,2,3-triazol-1-yl)pyrazin-2-yl)-N-(4-cyanobicyclo[2.1.1]hexan-1-yl)-4-methylbenzenesulfonamide Trifluoroacetate Salt]",≤ 0.1 µM,≤ 0.1 µM,≤ 0.1 µM
"Cc1ccc(S(=O)(=O)NC23CC(C#N)(C2)C3)cc1-c1cnc(N)c(-c2ncn(C)n2)n1 [Example 45, 3-(5-Amino-6-(1-methyl-1H-1,2,4-triazol-3-yl)pyrazin-2-yl)-N-(3-cyanobicyclo[1.1.1]pentan-1-yl)-4-methylbenzenesulfonamide Trifluoroacetate Salt]",≤ 0.5 µM,≤ 0.1 µM,≤ 0.5 µM
"Cc1ccc(S(=O)(=O)NC23CCC(C#N)(C2)C3)cc1-c1cnc(N)c(-c2ncn(C)n2)n1 [Example 46, 3-(5-Amino-6-(1-methyl-1H-1,2,4-triazol-3-yl)pyrazin-2-yl)-N-(4-cyanobicyclo[2.1.1]hexan-1-yl)-4-methylbenzenesulfonamide Trifluoroacetate Salt]",≤ 0.5 µM,≤ 0.1 µM,≤ 0.1 µM
"[2H]C([2H])([2H])c1ccc(S(=O)(=O)NC23CCC(O)(CC2)C3)cc1-c1cnc(N)c(-n2cncn2)n1 [Example 47, 3-(5-Amino-6-(1H-1,2,4-triazol-1-yl)pyrazin-2-yl)-N-(4-hydroxybicyclo[2.2.1]heptan-1-yl)-4-(methyl-d3)benzenesulfonamide Trifluoroacetate Salt]",≤ 0.1 µM,≤ 0.1 µM,≤ 0.1 µM
"[2H]C([2H])([2H])c1ccc(S(=O)(=O)NC23CC(C#N)(C2)C3)cc1-c1cnc(N)c(-n2cncn2)n1 [Example 48, 3-(5-Amino-6-(1H-1,2,4-triazol-1-yl)pyrazin-2-yl)-N-(3-cyanobicyclo[1.1.1]pentan-1-yl)-4-(methyl-d3)benzenesulfonamide Trifluoroacetate Salt]",≤ 0.1 µM,≤ 0.1 µM,≤ 0.5 µM
"[2H]C([2H])([2H])c1ccc(S(=O)(=O)NC23CC(CO)(C2)C3)cc1-c1cnc(N)c(-n2cncn2)n1 [Example 49, 3-(5-Amino-6-(1H-1,2,4-triazol-1-yl)pyrazin-2-yl)-N-(3-(hydroxymethyl)bicyclo[1.1.1]pentan-1-yl)-4-(methyl-d3)benzenesulfonamide Trifluoroacetate Salt]",≤ 0.5 µM,≤ 0.1 µM,≤ 0.1 µM
"[2H]C([2H])([2H])c1ccc(S(=O)(=O)NC23CC(C#N)(C2)C3)cc1-c1cnc(N)c(-n2nccn2)n1 [Example 50, 3-(5-Amino-6-(2H-1,2,3-triazol-2-yl)pyrazin-2-yl)-N-(3-cyanobicyclo[1.1.1]pentan-1-yl)-4-(methyl-d3)benzenesulfonamide Trifluoroacetate Salt]",≤ 0.5 µM,≤ 0.1 µM,≤ 0.1 µM
"O=C(O)C(F)(F)F.[2H]C([2H])([2H])c1ccc(S(=O)(=O)NC23CNC(C2)C3)cc1-c1cnc(N)c(-c2cnc(C)s2)n1 [Example 54, 3-(5-Amino-6-(2-methylthiazol-5-yl)pyrazin-2-yl)-N-(2-azabicyclo[2.1.1]hexan-4-yl)-4-(methyl-d3)benzenesulfonamide trifluoroacetate salt]",≤ 0.5 µM,≤ 0.1 µM,≤ 0.1 µM
"O=C(O)C(F)(F)F.[2H]C([2H])([2H])c1ccc(S(=O)(=O)NC23CNC(C2)C3)cc1-c1cnc(N)c(-c2cnc(C3CC3)s2)n1 [Example 55, 3-(5-Amino-6-(2-cyclopropylthiazol-5-yl)pyrazin-2-yl)-N-(2-azabicyclo[2.1.1]hexan-4-yl)-4-(methyl-d3)benzenesulfonamide trifluoroacetate salt]",≤ 0.5 µM,≤ 0.1 µM,≤ 0.1 µM
